Laboratory results from patent US8697385B1, “Protein controlling synthesis of collagen and associated methods” (Florida State University Research Foundation, Inc., priority 2009, dated 2014).

Tests used:
Δ5′SL MEFs = experiment: Western blot analysis of collagen α1(I) polypeptide, Δ5′SL MEFs; assay type: cell-based, mouse; details: ML-7 treatment
Description: (§1) ML-7, blebbistatin, cytochalasin B, puromycin, and cycloheximide were purchased from Sigma. ML-7 was used at 40 μM, blebbistatin was used at 100 μM, and cytochalasin B was used at 20 μM. Cells were incubated with the drugs for 16 h before analysis. Puromycin (200 μg/ml) and cycloheximide (100 μg/ml) were added to the cells for 2 h. Human lung fibroblasts have been described previously.16 Scleroderma fibroblasts were purchased from the European Collection of Cell Cultures (cell line BM0070) and derived from the skin of a scleroderma patient. MEFs were derived from knock-in mice in which the 5′SL of the collagen α1(I) gene has been mutated (Parsons et al., submitted). Several independent cell isolates were used throughout the study. All cells were cultured in Dulbecco's modified Eagle's medium supplemented with 10% fetal bovine serum for up to 10 passages. […] [^32P]dCTP was included in the PCR step to label the products, which were resolved on sequencing gels, as described previously.^8,31,49,50 When RNA from polysomal fractions was analyzed, an equal aliquot of each fraction was used. […]
(§2) Protein concentration was estimated by the Bradford assay, with bovine serum albumin as standard.^51 Western blot analyses of cellular proteins were performed using 50 μg of protein. […] The medium was collected, and an aliquot was analyzed directly by Western blot analysis. […]

myosin IIB = experiment: Western blot analysis of total nonmuscle myosin IIB level; assay type: cell-based, human; details: Western blot; ML-7 40 μM 16 h
Description: as §1, §2

lung fibroblasts = experiment: Immunostaining for subcellular colocalization of collagen α1(I) and α2(I) polypeptides; assay type: cell-based, human; details: ML-7-treated vs control cells (high degree of colocalization)
Description: as §1, §2

[1] = system: primary scleroderma skin fibroblasts; experiment: Western blot analysis of cellular and medium collagen polypeptides, scleroderma fibroblasts; assay type: cell-based, human; details: 16 h, ML-7 40 μM, blebbistatin 100 μM
Description: ML-7, blebbistatin, cytochalasin B, puromycin, and cycloheximide were purchased from Sigma. ML-7 was used at 40 μM, blebbistatin was used at 100 μM, and cytochalasin B was used at 20 μM. Cells were incubated with the drugs for 16 h before analysis. Puromycin (200 μg/ml) and cycloheximide (100 μg/ml) were added to the cells for 2 h. Human lung fibroblasts have been described previously.16 Scleroderma fibroblasts were purchased from the European Collection of Cell Cultures (cell line BM0070) and derived from the skin of a scleroderma patient. MEFs were derived from knock-in mice in which the 5′SL of the collagen α1(I) gene has been mutated (Parsons et al., submitted). Several independent cell isolates were used throughout the study. All cells were cultured in Dulbecco's modified Eagle's medium supplemented with 10% fetal bovine serum for up to 10 passages. Plasmid constructs and adenovirus preparation. The HA-tagged LARP6 clone and the deletion mutants have been described previously.^16 Adenoviruses were constructed by recloning of the constructs into the pAdCMVTRACK vector, followed by recombination with the pAdEasy vector and amplification, as described previously.^48 Expression of each construct was verified by Western blot analysis. The viruses made express both the full-size test protein and the green fluorescent protein (GFP), which is encoded by an independent transcription unit.^48 Expression of GFP served as control for viral transduction. RT-PCR analysis Total cellular RNA was isolated using an RNA isolation kit (Sigma). RT-PCRs were performed with 100 ng of total RNA or using rTth reverse transcriptase (Boca Scientific, Boca Raton, Fla.). [^32P]dCTP was included in the PCR step to label the products, which were resolved on sequencing gels, as described previously.^8,31,49,50 When RNA from polysomal fractions was analyzed, an equal aliquot of each fraction was used. The number of cycles was adjusted to within the linear range of the reaction. The primers used for RT-PCR were as follows: h-collagen α1(I), 5′ primer […] (SEQ ID NO:3) and 3′ primer […] (SEQ ID NO:4); h-collagen α2(I), 5′ primer […] (SEQ ID NO:5) and 3′ primer […] (SEQ ID NO:6).
Protein concentration was estimated by the Bradford assay, with bovine serum albumin as standard.^51 Western blot analyses of cellular proteins were performed using 50 μg of protein. For Western blot analysis of secreted proteins, equal numbers of cells were seeded, serum-free medium was added to the cells, and incubation continued for 3 h. The medium was collected, and an aliquot was analyzed directly by Western blot analysis. Use of serum free medium in collecting secreted proteins is essential because fetal calf serum contains substantial amounts of collagen and fibronectin.^15,31 For immunostaining, cells were seeded onto glass coverslips. After treatment, the cells were fixed with 4% paraformaldehyde for 30 min at room temperature and permeabilized with 0.5% Triton X-100 in phosphatebuffered saline (PBS) for 10 min. After the cells had been blocked with 10% goat serum/5% bovine serum albumin in PBS for 1 h at room temperature, they were incubated with primary antibody overnight at 4° C., washed, and visualized with AlexaFluor594-conjugated or Cy-2-conjugated secondary antibodies. The cells were mounted using VECTASHIELD mounting medium containing […], 6-diamidino-2-phenylindole (Vector Laboratories), and images were taken by a Leica TCS SP2 AOBS laser confocal microscope equipped with a Chameleon Ti: Sapphire multiphoton laser. Optical sections were processed with LCSLite software.
To assess the role of nonmuscle myosin in collagen synthesis, we disrupted nonmuscle myosin filaments in two different cell types: primary human lung fibroblasts and primary scleroderma skin fibroblasts. These cells are responsible for lung and skin fibrosis. […]

scleroderma fibroblasts = experiment: Apoptosis of primary scleroderma fibroblasts; assay type: cell-based; details: ML-7 did not have an effect
Description: To assess the role of nonmuscle myosin in collagen synthesis, we disrupted nonmuscle myosin filaments in two different cell types: primary human lung fibroblasts and primary scleroderma skin fibroblasts. These cells are responsible for lung and skin fibrosis. […] To assess the effect of ML-7 on collagen protein synthesis and secretion, we analyzed the levels of collagen α1(I) and α2(I) polypeptides in the intracellularly space and in the medium using Western blot analysis and chain-specific antibodies.^12,15,31-33 ML-7 treatment profoundly affected the secretion of type I collagen, but the effect differed in the two types of primary fibroblasts. […] To assess if the secreted α1(I) polypeptides had been secreted as disulfide-bonded homotrimers, we performed Western blot analysis under nonreducing conditions (FIG. 3d). […] However, since α2(I) polypeptide was absent in the cell medium of ML-7-treated cells, the bands must represent disulfide-bonded collagen α1(I) chains. The α2(I) antibody could not recognize the polypeptide under nonreducing conditions, so we could not directly test its presence in S—S bonded collagen. Since there are reports that ML-7 can cause apoptosis of epithelial cells, we tested if ML-7 caused apoptosis of the primary fibroblasts. […] Therefore, we concluded that increased apoptosis is not responsible for the observed effects of ML-7. […]

## O=S(=O)(c1cccc2c(I)cccc12)N1CCCNCC1 [ML-7]
Δ5′SL MEFs
  secretion of α1(I) polypeptide into the medium: did not affect
Myosin IIB
  total level of myosin IIB: remained unchanged
Lung fibroblasts
  subcellular colocalization of α1(I) and α2(I) polypeptides: a significant fraction of α2(I) polypeptide (red) was not colocalized with α1(I) polypeptide
[1]
  intracellular level of collagen α1(I) polypeptide: not changed
  intracellular level of collagen α2(I) polypeptide: reduced
[1]; cytochalasin B 20 μM
  secretion of collagen α1(I) polypeptide into the medium: barely detectable
  secretion of collagen α2(I) polypeptide into the medium: absent
  secretion/expression of fibronectin: not affected
Scleroderma fibroblasts
  percentage of apoptotic cells: 0.3%
